Data reported in EP4455142A1, “NOVEL INHIBITOR OF QPCTL AND/OR QC” (Scenic Immunology B.V., priority 2023, dated 2024).

Columns and labels:
recombinant QC enzyme = biological target: T1, recombinant QC enzyme (Homo sapiens, UniProt Q16769); experiment: Assay 2 - QC potency, fluorescent enzymatic assay (H-Gln-AMC, coupled pGAPase detection); type: biochemical; conditions: 1 hour at 37°C
T1 construct: bacterial expression of residues 33-361 of uniprot ID Q16769, fused to a His tag; His tag (cleaved yes); made in house
T1 sequence (Q16769 33-361): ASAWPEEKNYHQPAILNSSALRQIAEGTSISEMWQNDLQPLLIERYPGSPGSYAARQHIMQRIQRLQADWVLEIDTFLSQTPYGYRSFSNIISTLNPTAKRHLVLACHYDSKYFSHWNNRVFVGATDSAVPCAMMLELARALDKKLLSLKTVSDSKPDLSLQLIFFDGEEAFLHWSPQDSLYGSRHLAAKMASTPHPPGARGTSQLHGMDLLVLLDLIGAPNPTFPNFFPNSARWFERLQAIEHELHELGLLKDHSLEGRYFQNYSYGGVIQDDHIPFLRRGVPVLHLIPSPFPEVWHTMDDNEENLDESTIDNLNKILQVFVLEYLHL
Procedure: After scale-up, expression and lysis, protein was purified by Ni-NTA IMAC, dialysed in the presence of Factor Xa, further purified by Ni-NTA reverse IMAC and finally filtrated for size on a Superdex 200 16/60 column. Final protein was concentrated using a spin concentrator at 10 kDa molecular weight cut-off and formulated in 150 mM NaCl, 50 mM Tris-HCl, 50% Glycerol, pH 8.0.
(§1) Pyroglutamylation was measured by conversion of glutamine-4-amino-7-methylcoumarine (H-Gln-AMC, Bachem) to pyroglutamyl-AMC, which is subsequently a specific substrate for pyroglutamylaminopeptidase (pGAPase, Qiagen), releasing free AMC which can be fluorescently detected. For a typical inhibition assay, 7.5 µL aliquots of threefold dilutions of test compound in 50 mM Tris pH8 buffer were plated in 384-well plates. 15 µL 20 µM h-Gln-AMC (diluted from a 40 mM stock dissolved in 25 mM HEPES using 50 mM Tris-HCl pH 8.0) was added to each well. Finally, 7.5 µL, 3 ng/µL recombinant QC enzyme was added and the reaction mixture was incubated for 1 hour at 37°C. A 5 minute incubation at 98°C was then performed to denature the QC enzyme and stop the reaction.
25 µL of the pyroglutamylation reaction mixture was transferred into an empty plate and to that, 25 µL of the pGAPase enzyme solution was added. Plates were then incubated for 25 minutes at room temperature before fluorescence readings were taken on an Envision2 plate reader with excitation set at 380 nm and emission at 450 nm.
Controls were taken along containing pyroglutamylated-AMC (Bachem, dissolved at 10 mM in DMSO) instead of H-Gln-AMC to control for pGAPase inhibition.
(§2) IC50 values are calculated using non-linear regression analysis with GraphPad Prism software.

human isoQC = biological target: T2, human isoQC (Homo sapiens, UniProt Q9NXS2); experiment: Assay 1 - isoQC potency, fluorescent enzymatic assay (H-Gln-AMC, coupled pGAPase detection); type: biochemical; conditions: recombinant isoQC, 1 hour at 37°C
T2 construct: The Golgi luminal, enzymatically active region of human isoQC (S53-L382; see, e.g., Huang et al., 2011); GST (with enterokinase site) (N, cleaved yes); made in house; host or cells: E. coli
T2 sequence (Q9NXS2 53-382): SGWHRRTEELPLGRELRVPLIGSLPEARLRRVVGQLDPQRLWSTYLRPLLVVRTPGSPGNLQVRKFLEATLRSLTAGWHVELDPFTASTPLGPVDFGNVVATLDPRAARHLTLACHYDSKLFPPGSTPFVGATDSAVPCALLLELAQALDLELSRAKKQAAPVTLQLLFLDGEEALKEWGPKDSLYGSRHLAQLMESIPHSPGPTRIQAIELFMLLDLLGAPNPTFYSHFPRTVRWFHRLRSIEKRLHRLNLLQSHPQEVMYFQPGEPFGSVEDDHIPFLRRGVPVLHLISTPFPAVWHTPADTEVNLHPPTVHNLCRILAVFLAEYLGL
Description: The Golgi luminal, enzymatically active region of human isoQC (S53-L382; see, e.g., Huang et al., 2011) was obtained by expression in E. coli of an N-terminally GST Enterokinase and C-terminally 6xHis tagged construct in the pET41(+) vector and subsequent purification using Ni-NTA IMAC. Enterokinase digestion ensued, followed by another Ni-NTA IMAC purification, Superdex75 based size exclusion and finally a spin concentration using a 10 kDa molecular weight cutoff. The final protein is formulated in 50 mM Tris-HCl, 150 mM NaCl, 50% Glycerol, pH 7.8.
as §1, with “in 50mM” for “in 50 mM”, “µM hGln-AMC” for “µM h-Gln-AMC”, “Tris-HCl 25” for “Tris-HCl”, “recombinant isoQC” for “recombinant QC”, “the isoQC” for “the QC”
To detect the amount of pyroglutamyl-AMC formed, a 0.125 U/mL pGAPase enzyme diluted in 50 mM Tris-HCl pH 8.0 containing 10 mM dithiothreitol (DTT) solution was prepared. 25 µL of the pyroglutamylation reaction mixture was transferred into an empty plate and to that, 25 µL of the pGAPase enzyme solution was added. Plates were then incubated for 25 minutes at room temperature before fluorescence readings were taken on an Envision2 plate reader with excitation set at 380 nm and emission at 450 nm. DMSO concentrations during the assay never exceeded 1% and activities were compared to controls containing only the same amount of DMSO and no test compound. Controls were taken along containing pyroglutamylated-AMC (Bachem, dissolved at 10 mM in DMSO) instead of H-Gln-AMC to control for pGAPase inhibition.
as §2

pyroglutamylated CD47 = experiment: Assay 3 - cell-based potency assay (pyroglutamylation in live cells, total CD47/pE-CD47 dual staining, FACS); parameters: species or system human; conditions: IC50 of CC2C6 signal, KBM7 cells, 72 hours incubation
Procedure: Cells were spun for 4 minutes at 1500 rpm and washed once with PBS / 0.5% BSA. Cells were spun down again and the supernatant was removed and incubated in 100 uL antibody staining solution (PBS / 0.5% BSA / 0.1 µg/mL DAPI (4',6-diamidino-2-phenylindole, ThermoFisher Scientific) and a mixture of 1:500 FITC-conjugated anti-human CD47 clone 2D3, which recognizes total CD47 irrespective of its pyroglutamylation state, and 1:500 Alexa647-conjugated anti-human CD47 clone CC2C6, which specifically detects pyroglutamylated CD47) for 2 hours at 4°C. Next, the cells were spun down and washed twice with 2 x 150 µL PBS / 0.5% BSA to remove unbound antibody. Cells were again spun down and taken up in 300 µL FACS buffer before analysis on a Celesta FACS machine (BD Biosciences).
KBM7 cells (Kotecki et al., 1999) were infected with lentivirus produced by transfecting pSCNC-LentiCRISPR-QPCTL or pSCNC-LentiCRISPR-CD47 into HEK-293T cells according to standard protocols. After 24 hours incubation, cells were selected with puromycin (Invivogen, 1 µg/mL) for 48 hours. Cells were stained for total CD47 and pE-CD47 and QPCTL k.o. cells were sorted out as negative for pE-CD47, and CD47 k.o. cells as negative for total CD47, using a FACSAria III and FACS Diva software (BD Biosciences).
In order to test compounds for their effect on pyroglutamylation in live cells, 25000 KBM7 cells per well were seeded in a 96-well U-bottom plate in 150 µl IMDM / 10% FCS / 1% Pen / Strep medium and a 10-point 2-fold dilution range of test compounds. After 72 hours incubation at 37°C, 5% COz, cells were stained for total CD47 and pE-CD47 and analysed on a BD Celesta using FACS Diva software (BD Biosciences). Cells gated for DAPI negativity were recorded and the median fluorescence intensity (MFI) of each sample was transformed to linearly scale between the MFI's of wildtype and CD47 knockout cells (in case of the 2D3 antibody) and the wildtype and QPCTL knockout cells (in case of the CC2C6 antibody). ICso's were calculated by 3 parameter logistic regression of the CC2C6 signal vs. compound concentration, where the top of the sigmoidal curve was fixed at 1, using R and the drc package (http://www.r-project.org, https://cran.r-project.org/web/packages/drc/index.html).

| SMILES | IC50 (recombinant QC enzyme) [nM] | IC50 (human isoQC) [nM] | IC50 (pyroglutamylated CD47; Homo sapiens, KBM-7, 72 h) [nM] | IC50 (pyroglutamylated CD47) [nM] |
| --- | --- | --- | --- | --- |
| O=C1OCC(c2cc(F)cc(C(F)(F)F)c2)N1c1ccc2[nH]cnc2c1 (racemic) [(17)-Rac, reference compound] | 1730 | 1200 | > 50000 |  |
| O=C1OCC(c2ccc(N3CCCC3)cc2)N1c1ccc2[nH]cnc2c1 (racemic) [(18)-Rac, reference compound] | 49.1 | 48.4 | 8510 |  |
| O=C1OCC(c2ccc(C3CCC(F)(F)CC3)cc2)N1c1ccc2[nH]cnc2c1 (racemic) [(19)-Rac, reference compound] |  | 63.7 | 10400 |  |
| O=C1OCC(c2cc(F)cc(C(F)(F)F)c2)N1c1ccc2[nH]cnc2c1 (single isomer, unassigned) [(17)-ent1, reference compound] | > 10000 | 10900 | > 50000 |  |
| O=C1OCC(c2ccc(N3CCCC3)cc2)N1c1ccc2[nH]cnc2c1 (single isomer, unassigned) [(18)-ent1, reference compound] | 2530 | 1170 |  | > 50000 |
| O=C1OCC(c2ccc(C3CCC(F)(F)CC3)cc2)N1c1ccc2[nH]cnc2c1 (single isomer, unassigned) [(19)-ent1, reference compound] |  | 1240 |  | > 12500 |
| O=C1OC[C@H](c2ccc(-c3cnn(C(F)(F)F)c3)c(F)c2F)N1c1ccc2[nH]cnc2c1 [(2)] | 38.9 | 4 | 106 |  |
| O=C1OC[C@H](c2ccc(-c3ccn(C(F)(F)F)n3)cc2F)N1c1ccc2[nH]cnc2c1 [(5)] | 34.7 | 7.7 | 659 |  |
| O=C1OC[C@H](c2ccc(-c3cnn(C(F)(F)F)n3)cc2F)N1c1ccc2[nH]cnc2c1 [(6)] | 15.1 | 3 |  |  |
| O=C1OC[C@H](c2ccc(-c3ccc(C(F)(F)F)o3)cc2F)N1c1ccc2[nH]cnc2c1 [(7)] | 70.1 | 10 | 503 |  |
| O=C1OC[C@H](c2ccc(-c3ccc(C(F)(F)F)s3)cc2F)N1c1ccc2[nH]cnc2c1 [(8)] | 86 | 13.4 | 526 |  |
| O=C1OC[C@H](c2ccc(-c3nc(C(F)(F)F)cs3)cc2F)N1c1ccc2[nH]cnc2c1 [(9)] | 36.1 | 9 | 622 |  |
| O=C1OC[C@H](c2ccc(-c3noc(C(F)(F)F)n3)cc2F)N1c1ccc2[nH]cnc2c1 [(10)] | 48.2 | 12.6 |  |  |
| O=C1OC[C@H](c2ccc(-c3cc(C(F)(F)F)no3)cc2F)N1c1ccc2[nH]cnc2c1 [(11)] | 24.3 | 5.2 | 252 |  |
| O=C1OC[C@H](c2ccc(-c3cnn(C(F)F)c3)cc2F)N1c1ccc2[nH]cnc2c1 [(12)] | 7.5 | 3.3 | 157 |  |
| O=C1OC[C@H](c2ccc(-c3cnn(CF)c3)cc2F)N1c1ccc2[nH]cnc2c1 [(13)] | 11.3 | 4 | 401 |  |
| O=C1OC[C@H](c2ccc(-c3cnn(C4CC4(F)F)c3)cc2F)N1c1ccc2[nH]cnc2c1 (stereo partly drawn) [(14)] | 12.7 | 3.6 |  |  |
| O=C1OC[C@H](c2ccc(-c3cnn(CC(F)F)c3)cc2F)N1c1ccc2[nH]cnc2c1 [(15)] | 8 | 2.7 | 155 |  |
| O=C1OC[C@H](c2ccc(-c3cnn(C4CC(F)(F)C4)c3)cc2F)N1c1ccc2[nH]cnc2c1 [(16)] | 9.4 | 5.1 |  |  |
